In patent publication US20120172384A1, “HETEROCYCLYLAMINOPYRIMIDINES AS KINASE INHIBITORS” (priority 2009, published 2012):

Columns and labels:
JAK3 = molecular target: T1, JAK3 (Homo sapiens, UniProt P52333); assay: JAK3 kinobeads assay; type: binding; conditions: cell lysate, dot blot with JAK3 specific antibody
T1 construct: endogenous in cells
T1 sequence (P52333 1-1124): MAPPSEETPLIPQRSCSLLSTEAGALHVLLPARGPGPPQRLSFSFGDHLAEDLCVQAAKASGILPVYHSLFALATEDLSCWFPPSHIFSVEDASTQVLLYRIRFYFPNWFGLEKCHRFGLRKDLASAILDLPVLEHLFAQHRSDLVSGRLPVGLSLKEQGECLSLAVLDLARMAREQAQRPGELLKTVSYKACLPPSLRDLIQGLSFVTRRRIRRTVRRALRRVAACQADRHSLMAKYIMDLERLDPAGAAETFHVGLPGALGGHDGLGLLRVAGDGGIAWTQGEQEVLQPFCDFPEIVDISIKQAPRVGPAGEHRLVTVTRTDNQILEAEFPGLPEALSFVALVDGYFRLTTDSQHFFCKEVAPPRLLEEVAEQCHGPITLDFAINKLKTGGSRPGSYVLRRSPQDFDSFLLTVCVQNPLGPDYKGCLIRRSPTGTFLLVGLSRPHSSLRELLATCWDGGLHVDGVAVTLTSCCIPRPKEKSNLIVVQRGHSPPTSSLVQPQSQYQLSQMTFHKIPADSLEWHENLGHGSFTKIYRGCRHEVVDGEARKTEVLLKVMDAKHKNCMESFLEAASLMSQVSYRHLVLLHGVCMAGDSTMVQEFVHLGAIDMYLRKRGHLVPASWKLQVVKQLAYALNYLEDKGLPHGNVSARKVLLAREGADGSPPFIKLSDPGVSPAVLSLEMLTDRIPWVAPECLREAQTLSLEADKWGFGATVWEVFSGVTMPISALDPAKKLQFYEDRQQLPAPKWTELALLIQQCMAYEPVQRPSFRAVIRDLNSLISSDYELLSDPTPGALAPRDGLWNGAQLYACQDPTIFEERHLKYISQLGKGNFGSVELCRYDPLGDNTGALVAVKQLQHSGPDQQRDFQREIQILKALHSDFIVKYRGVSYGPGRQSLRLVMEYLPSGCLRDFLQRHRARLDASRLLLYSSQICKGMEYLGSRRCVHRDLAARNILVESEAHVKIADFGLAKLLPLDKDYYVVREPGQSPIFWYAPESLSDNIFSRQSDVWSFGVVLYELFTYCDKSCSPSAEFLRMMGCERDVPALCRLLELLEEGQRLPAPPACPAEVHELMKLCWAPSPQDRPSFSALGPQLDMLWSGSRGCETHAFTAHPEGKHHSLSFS
Method: (§1) The compounds of the present invention as described in the previous examples were tested in the ZAP-70 kinobeads assay as described (EP-A 1862802 and WO-A 2007/137867). Briefly, test compounds (at various concentrations) and the affinity matrix with the immobilized aminopyrido-pyrimidine ligand 24 are added to cell lysate aliquots and allowed to bind to the proteins in the lysate sample. After the incubation time the beads with captured proteins are separated from the lysate. Bound proteins are then eluted and the presence ZAP-70 is detected and quantified using a specific antibody in a dot blot procedure and the Odyssey infrared detection system.
Compounds were tested by the procedure described in Example 102 but using a JAK3 specific antibody (Cell Signaling Technology, Inc., Danvers, US, catalogue number 3775) instead of a ZAP70 antibody.

ZAP-70 = molecular target: T2, ZAP-70 (Homo sapiens, UniProt P43403); assay: ZAP-70 kinobeads assay; type: binding; conditions: cell lysate, dot blot with ZAP-70 antibody
T2 construct: endogenous in cells
T2 sequence (P43403 1-619): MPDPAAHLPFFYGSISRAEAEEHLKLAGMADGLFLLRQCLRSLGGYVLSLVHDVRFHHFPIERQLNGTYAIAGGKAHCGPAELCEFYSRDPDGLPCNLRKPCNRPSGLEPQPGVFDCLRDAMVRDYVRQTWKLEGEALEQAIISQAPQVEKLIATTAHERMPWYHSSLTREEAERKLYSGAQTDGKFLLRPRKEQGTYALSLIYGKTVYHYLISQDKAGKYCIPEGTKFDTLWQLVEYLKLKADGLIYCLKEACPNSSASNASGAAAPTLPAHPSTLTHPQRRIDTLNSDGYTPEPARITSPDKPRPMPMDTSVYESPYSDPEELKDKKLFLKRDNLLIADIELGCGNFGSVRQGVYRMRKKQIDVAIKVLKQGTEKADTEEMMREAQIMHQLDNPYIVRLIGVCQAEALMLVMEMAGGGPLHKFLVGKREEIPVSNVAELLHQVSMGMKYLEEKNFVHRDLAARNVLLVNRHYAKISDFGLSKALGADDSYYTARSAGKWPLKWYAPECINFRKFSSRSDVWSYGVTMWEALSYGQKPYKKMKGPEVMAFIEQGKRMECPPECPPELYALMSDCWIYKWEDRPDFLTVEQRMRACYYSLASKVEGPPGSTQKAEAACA
Method: as §1

Row | Structure (SMILES) | IC50 (JAK3) [nM] | IC50 (ZAP-70) [nM]
1 | CCn1cc(Nc2ncc(F)c(Nc3ccccc3NS(C)(=O)=O)n2)c(C)n1 [Example 37, N-(2-(2-(1-ethyl-3-methyl-1H-pyrazol-4-ylamino)-5-fluoropyrimidin-4-ylamino)phenyl)methanesulfonamide] | 100 to 1000 | 1000 to 10000
2 | COc1ccc(Nc2nc(Nc3cnn(C)c3C)ncc2Cl)c(NS(C)(=O)=O)c1 [Example 67, N-(2-((5-chloro-2-((1,5-dimethyl-1H-pyrazol-4-yl)amino)pyrimidin-4-yl)amino)-5-methoxyphenyl)methanesulfonamide] | 100 to 1000 | ≤ 100
3 | COc1ccc(Nc2nc(Nc3cn(C)nc3C)ncc2F)c(NS(C)(=O)=O)c1 [Example 32, N-(2-(2-(1,3-dimethyl-M-pyrazol-4-ylamino)-5-fluoropyrimidin-4-ylamino)-5-methoxyphenyl)methanesulfonamide] | 100 to 1000 | 100 to 1000
4 | COc1ccc(Nc2nc(Nc3cn(C)nc3C)ncc2Cl)c(NS(C)(=O)=O)c1 [Example 18, N-(2-(5-chloro-2-(1,3-dimethyl-1H-pyrazol-4-ylamino)pyrimidin-4-ylamino)-5-methoxyphenyl)methanesulfonamide] | ≤ 100 | ≤ 100
5 | COc1ccc(Nc2nc(Nc3nonc3OC)ncc2Cl)c(NS(C)(=O)=O)c1 [Example 17, N-(2-(5-chloro-2-(4-methoxy-1,2,5-oxadiazol-3-ylamino)pyrimidin-4-ylamino)-5-methoxyphenyl)methanesulfonamide] | 1000 to 10000 | 1000 to 10000
6 | CCn1nccc1Nc1ncc(Cl)c(Nc2ccc(OC)cc2NS(C)(=O)=O)n1 [Example 29, N-(2-(5-chloro-2-(1-ethyl-1H-pyrazol-5-ylamino)pyrimidin-4-ylamino)-5-methoxyphenyl)methanesulfonamide] | 1000 to 10000 | 100 to 1000
7 | CS(=O)(=O)Nc1ccccc1Nc1nc(Nc2ccon2)ncc1Cl [Example 38, N-(2-(5-chloro-2-(isoxazol-3-ylamino)pyrimidin-4-ylamino)phenyl)methanesulfonamide] | ≤ 100 | 1000 to 10000
8 | COc1ccc(Nc2nc(Nc3ccon3)ncc2Cl)c(NS(C)(=O)=O)c1 [Example 3, N-(2-(5-chloro-2-(isoxazol-3-ylamino)pyrimidin-4-ylamino)-5-methoxyphenyl)methanesulfonamide] | ≤ 100 | 100 to 1000
9 | COc1ccc(Nc2nc(Nc3cc(C)nn3C)ncc2Cl)c(NS(C)(=O)=O)c1 [Example 8, N-(2-(5-chloro-2-(1,3-dimethyl-1H-pyrazol-5-ylamino)pyrimidin-4-ylamino)-5-methoxyphenyl)methanesulfonamide] | ≤ 100 | ≤ 100
10 | CCn1cc(Nc2ncc(Cl)c(Nc3ccc(OC)cc3NS(C)(=O)=O)n2)c(C)n1 [Example 28, N-(2-(5-chloro-2-(1-ethyl-3-methyl-1H-pyrazol-4-ylamino)pyrimidin-4-ylamino)-5-methoxyphenyl)methanesulfonamide] | ≤ 100 | 100 to 1000
11 | COc1ccc(Nc2nc(Nc3c(C)cnn3C)ncc2Cl)c(NS(C)(=O)=O)c1 [Example 14, N-(2-(5-chloro-2-(1,4-dimethyl-1H-pyrazol-5-ylamino)pyrimidin-4-ylamino)-5-methoxyphenyl)methanesulfonamide] |  | 1000 to 10000
12 | COc1ccc(Nc2nc(Nc3ccnn3CC3CC3)ncc2Cl)c(NS(C)(=O)=O)c1 [Example 60, N-(2-((5-chloro-2-((1-(cyclopropylmethyl)-1H-pyrazol-5-yl)amino)pyrimidin-4-yl)amino)-5-methoxyphenyl)methanesulfonamide] |  | 100 to 1000
13 | CC(C)n1ccc(Nc2ncc(Cl)c(Nc3ccccc3NS(C)(=O)=O)n2)n1 [Example 40, N-(2-(5-chloro-2-(1-isopropyl-1H-pyrazol-3-ylamino)pyrimidin-4-ylamino)phenyl)methanesulfonamide] | ≤ 100 | 100 to 1000
14 | CCn1cc(Nc2ncc(F)c(Nc3ccc(OC)cc3NS(C)(=O)=O)n2)c(C)n1 [Example 34, N-(2-(2-(1-ethyl-3-methyl-1H-pyrazol-4-ylamino)-5-fluoropyrimidin-4-ylamino)-5-methoxyphenyl)methanesulfonamide] | 100 to 1000 | 100 to 1000
15 | Cn1cc(Nc2ncc(Cl)c(Nc3ccccc3NS(C)(=O)=O)n2)cn1 [Example 20, N-(2-(5-chloro-2-(1-methyl-1H-pyrazol-4-ylamino)pyrimidin-4-ylamino)phenyl)methanesulfonamide] | ≤ 100 | 100 to 1000
16 | Cc1nn(C)cc1Nc1ncc(F)c(Nc2ccccc2NS(C)(=O)=O)n1 [Example 30, N-(2-(2-(1,3-dimethyl-1H-pyrazol-4-ylamino)-5-fluoropyrimidin-4-ylamino)phenyl)methanesulfonamide] | 100 to 1000 | 100 to 1000
17 | CS(=O)(=O)Nc1ccccc1Nc1nc(Nc2cnoc2)ncc1Cl [Example 44, N-(2-((5-chloro-2-(isoxazol-4-ylamino)pyrimidin-4-yl)amino)phenyl)methanesulfonamide] | 100 to 1000 | 1000 to 10000
18 | CCn1ncc(C)c1Nc1ncc(Cl)c(Nc2ccc(OC)cc2NS(C)(=O)=O)n1 [Example 26, N-(2-(5-chloro-2-(1-ethyl-4-methyl-1H-pyrazol-5-ylamino)pyrimidin-4-ylamino)-5-methoxyphenyl)methanesulfonamide] |  | 1000 to 10000
19 | COc1ccc(Nc2nc(Nc3cc(C(C)C)nn3C)ncc2Cl)c(NS(C)(=O)=O)c1 [Example 11, N-(2-(5-chloro-2-(3-isopropyl-1-methyl-1H-pyrazol-5-ylamino)pyrimidin-4-ylamino)-5-methoxyphenyl)methanesulfonamide] | 100 to 1000 | 100 to 1000
20 | COc1ccc(Nc2nc(Nc3ccnn3CC(C)C)ncc2Cl)c(NS(C)(=O)=O)c1 [Example 98, N-(2-((5-chloro-2-((1-isobutyl-1H-pyrazol-5-yl)amino)pyrimidin-4-yl)amino)-5-methoxyphenyl)methanesulfonamide] |  | 1000 to 10000
21 | COc1ccc(Nc2nc(Nc3cc(C)nn3CC(C)C)ncc2Cl)c(NS(C)(=O)=O)c1 [Example 95, N-(2-((5-chloro-2-((1-isobutyl-3-methyl-1H-pyrazol-5-yl)amino)pyrimidin-4-yl)amino)-5-methoxyphenyl)methanesulfonamide] |  | 100 to 1000
22 | CCCn1nccc1Nc1ncc(Cl)c(Nc2ccc(OC)cc2NS(C)(=O)=O)n1 [Example 76, N-(2-((5-chloro-2-((1-propyl-1H-pyrazol-5-yl)amino)pyrimidin-4-yl)amino)-5-methoxyphenyl)methanesulfonamide] |  | 100 to 1000
23 | CCC(C)n1nc(C)cc1Nc1ncc(Cl)c(Nc2ccc(OC)cc2NS(C)(=O)=O)n1 (stereo not drawn) [Example 27, N-(2-(2-(1-sec-butyl-3-methyl-1H-pyrazol-5-ylamino)-5-chloropyrimidin-4-ylamino)-5-methoxyphenyl)methanesulfonamide] |  | 100 to 1000
